Common to all, as to assay: DTP human tumour cell line panel, 48 h
For test [1], the system named is 786-0 renal.
In test [2] the test system is MOLT-4 leukemia.
Test [3] has as its system SK-MEL-5 melanoma.
Test [4] concerns RPMI-8226 leukemia.
Test [5] has as its system NCI-H226 lung.
Test [6] deals with A498 renal.
Test [7] deals with IGROV1 ovarian.
Test [8] deals with HOP-92 NSCLC.
The subject of test [9] is OVCAR-5 ovarian.
For test [10], the system named is CAKI-1 renal.
In test [11] the test system is MALME-3M melanoma.
The subject of test [12] is ACHN renal.
Test [13] deals with LOX IMVI melanoma.
Test [14] concerns MDA-MB-231 breast.
Test [15] relates to HOP-62 NSCLC.
Test [16] deals with U251 CNS.
Test [17] has as its system COLO 205 colon.

The source of these data is PubChem BioAssay (NCI).

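Method: 48-hour compound exposure of cells in 96-well plates, five concentrations, linear interpolation of endpoints. The concentration for full growth arrest is given as TGI.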 *1 amine or outer side, *2 acyl side, *3 side chain or, on linkers, in order; H or OH if unused. Where a SMILES comes first, the peptide text is derived from it. [ ]: non-standard residue; d: D form. The star is where a group is joined. ξ: configuration not given here. NMeY = CN[C@@H](Cc1ccc(O)cc1)C(=O)O; Ethylenediamine = C(CN[*:2])N[*:1]; ξNMeL = CNC(CC(C)C)C(=O)O; Cbz = O=C(OCc1ccccc1)*; Lac = C[C@H](O)C(=O)O; ξA = CC(N)C(=O)O

Consider `NC(=O)CN1CC(C2=C(O)CN(CC(N)=O)C2=O)=CC1=O`, for which the TGI in [1], in [2], in [3], in test [4], in [5] and in [6] was > 100 µM in each case. Further, the TGI in [7], in test [8], in test [9], in test [10], in test [11] and in test [12] was > 100 µM throughout. The TGI in test [13], in [14], in test [15], in test [16] and in test [17] was > 100 µM each time.

For `Cc1ccc(S(=O)(=O)NC(=O)Nc2cccc(S(N)(=O)=O)c2)cc1`, the TGI in test [1], in test [2], in [3], in test [4], in [5] and in [6] was > 100 µM throughout. Also, the TGI in test [7], in [8], in test [9], in test [10], in test [11] and in test [12] was > 100 µM in each case. Further, the total growth inhibition concentration (TGI) in [13], in [14], in test [15], in test [16] and in test [17] was > 100 µM each time.

With `COc1ccc2c(c1)CC1COc3cc(OC)ccc3C1O2` (stereo unspecified), the TGI in [1], in test [2], in [3], in [4], in [5] and in [6] was > 100 µM each time. For the same compound, the TGI in test [7], in [8], in test [9], in [10], in test [11] and in test [13] was > 100 µM throughout. Moreover, the TGI in test [14], in test [15], in test [16] and in test [17] was > 100 µM in each case.

As to `CCOc1ccccc1NC(=O)C(=O)C(/C(=N/N)C(=O)OC)c1nc2ccc([N+](=O)[O-])cc2[nH]c1=O` (stereo unspecified), the TGI in test [1], in test [2], in [3], in test [4], in [5] and in test [6] was > 100 µM throughout. Also, the TGI in test [7], in test [8], in test [9], in [10], in test [11] and in test [13] was > 100 µM throughout. Further, the concentration for total growth inhibition (TGI) in test [14], in [15] and in [16] was > 100 µM in each case.

Regarding `COc1ccc(C[C@@H](C(=O)NCCNC(=O)C(CC(C)C)N(C)C(=O)[C@@H]2CCCN2C(=O)[C@H](C)O)N(C)C(=O)[C@@H]2CCCN2C(=O)[C@H](CC(C)C)NC(=O)C(C)NC(=O)OCc2ccccc2)cc1` (stereo partly specified) (Cbz-[ξA]LP[NMeY](Me)-{Ethylenediamine-ξNMeL-Pro-Lac}), the TGI in test [1], in test [2], in test [3], in [4], in test [5] and in [6] was > 100 µM in each case. Also, the TGI in [7], in test [8], in [9], in [10], in [11] and in [12] was > 100 µM each time. Moreover, the TGI in [13], in test [14], in test [15], in test [16] and in test [17] was > 100 µM throughout.

In the case of `Cc1cc(S(=O)(=O)Nc2nnc3c4ccccc4cnn23)c(S)cc1Cl`, the TGI in test [1] was > 100 µM; in test [2], > 100 µM; in [3], > 100 µM; in test [4], > 100 µM; in test [5] it was > 69.3 µM; in test [6] it was > 100 µM. Also, the TGI in test [7], in test [8], in test [9], in test [10], in [11] and in test [12] was > 100 µM each time. In addition, the total growth inhibition concentration (TGI) was > 100 µM in test [13]; > 100 µM in test [14]; > 100 µM in test [15]; > 84.2 µM in test [16]; > 100 µM in test [17].

As to `C=C1CCCC(C)(C)[C@H]1C/C=C1\CCOC1=O`, the concentration for total growth inhibition (TGI) was 28.7 µM in [1]; 38.9 µM in test [2]; 21.8 µM in test [3]; > 100 µM in [4]; 24.9 µM in test [5]; 31 µM in [6]. Moreover, the TGI in [7] turned out to be 28.8 µM; in test [8] it was 26.6 µM; in test [10], 30.2 µM; in test [11], 26.9 µM; in test [12], 29.4 µM; in test [13], 23.6 µM. In addition, the TGI in test [14] was 31.6 µM; in test [15], 39.9 µM; in test [16], 30.4 µM; in test [17], 33.4 µM.

Take `Cc1c2n(c3ccccc13)S(=O)(=O)c1ccccc1-2`: the TGI in test [1] is 22.7 µM; in [2], > 100 µM; in test [3], > 100 µM; in test [4] it was > 100 µM; in test [5] it was > 100 µM; in test [6], 27.4 µM. Further, the TGI in test [7] was > 100 µM; in [8], 73.6 µM; in test [9] it was > 100 µM; in test [10], 27.4 µM; in test [11], > 100 µM; in test [12], 43 µM. Besides, the TGI was > 100 µM in test [13], 39.4 µM in test [14], 37.9 µM in test [16] and > 100 µM in test [17].
